Assay results from patent US20240409585A1, “MACROCYCLIC IMMUNOMODULATORS” (priority 2021, published 2024).
Bridge positions count the residues as written; N and C are the ends. Square brackets hold non-standard residues; d marks the D form. Peptide text beside a SMILES is read from it. * marks the point of attachment. Phe(4-COOH) = N[C@@H](Cc1ccc(C(=O)O)cc1)C(=O)O; Bip = N[C@@H](Cc1ccc(-c2ccccc2)cc1)C(=O)O; Phe(3-Me) = Cc1cccc(C[C@H](N)C(=O)O)c1; Val(3-OH) = CC(C)(O)[C@H](N)C(=O)O; Cha = N[C@@H](CC1CCCCC1)C(=O)O; Carboxymethyl = O=C(O)C*; NMeA = CN[C@@H](C)C(=O)O; Orn = NCCC[C@H](N)C(=O)O; Dab = NCC[C@H](N)C(=O)O

Biological target: T1, PE-labeled human PD-L1-Ig binding to Jurkat cell line over-expressing human PD-1 (Jurkat-PD-1) (Homo sapiens, UniProt Q15116)
T1 construct: expressed in transfected cells; host or cells: Jurkat
T1 sequence (Q15116 25-288): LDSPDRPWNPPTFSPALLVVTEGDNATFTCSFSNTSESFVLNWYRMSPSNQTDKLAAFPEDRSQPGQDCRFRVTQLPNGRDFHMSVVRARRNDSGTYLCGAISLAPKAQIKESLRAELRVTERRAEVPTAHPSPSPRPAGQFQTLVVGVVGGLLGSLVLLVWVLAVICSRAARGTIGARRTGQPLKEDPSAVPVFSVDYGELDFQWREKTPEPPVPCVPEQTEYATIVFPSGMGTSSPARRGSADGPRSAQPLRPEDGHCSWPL
Test: Jurkat-PD-1 Cell Binding High-Content Screening Assay (CBA): Method 1
Settings: Jurkat-hPD-1 cells, PE-labeled PD-L1-Ig 20 nM final; read-out: Jurkat HPDL1 PD1 IC50 (uM) (Method 1)

| SMILES | IC50 [µM] |
| --- | --- |
| Cc1cccc(C[C@@H]2NC(=O)[C@H](CC(=O)O)NC(=O)[C@H](Cc3ccc(OCC(=O)O)cc3)NC(=O)[C@H]([C@@H](C)O)NC(=O)CSC[C@@H](C(N)=O)NC(=O)[C@H]([C@@H](C)O)NC(=O)[C@H](C(C)C)NC(=O)[C@H](CC3CCCCC3)NC(=O)[C@H](CC(N)=O)NC(=O)[C@@H](CC(C)C)NC(=O)[C@H](C)N(C)C(=O)[C@H](Cc3ccc(OCC(=O)O)cc3)NC(=O)[C@H](Cc3ccc(-c4ccccc4)cc3)NC(=O)[C@H](Cc3ccc(OCC(=O)O)cc3)NC2=O)c1 [Compound 1678] ({CH2CO}-TY(Carboxymethyl)D[Phe(3-Me)]Y(Carboxymethyl)[Bip]Y(Carboxymethyl)[NMeA][dL]N[Cha]VTC-NH2; thioether N-14) | 0.15 |
| Cc1cccc(C[C@@H]2NC(=O)[C@H](CC(=O)O)NC(=O)[C@H](Cc3ccc(OCC(=O)O)cc3)NC(=O)[C@H]([C@@H](C)O)NC(=O)CSC[C@@H](C(N)=O)NC(=O)[C@H](CCC(=O)O)NC(=O)[C@H](C(C)C)NC(=O)[C@H](CC3CCCCC3)NC(=O)[C@H](CC(N)=O)NC(=O)[C@@H](CC(C)C)NC(=O)[C@H](C)N(C)C(=O)[C@H](Cc3ccc(OCC(=O)O)cc3)NC(=O)[C@H](Cc3ccc(-c4ccccc4)cc3)NC(=O)[C@H](Cc3ccc(OCC(=O)O)cc3)NC2=O)c1 [Compound 1679] ({CH2CO}-TY(Carboxymethyl)D[Phe(3-Me)]Y(Carboxymethyl)[Bip]Y(Carboxymethyl)[NMeA][dL]N[Cha]VEC-NH2; thioether N-14) | 0.23 |
| Cc1cccc(C[C@@H]2NC(=O)[C@H](CC(=O)O)NC(=O)[C@H](Cc3ccc(OCC(=O)O)cc3)NC(=O)[C@H]([C@@H](C)O)NC(=O)CSC[C@@H](C(N)=O)NC(=O)[C@H](CCCN)NC(=O)[C@H](C(C)C)NC(=O)[C@H](CC3CCCCC3)NC(=O)[C@H](CC(N)=O)NC(=O)[C@@H](CC(C)C)NC(=O)[C@H](C)N(C)C(=O)[C@H](Cc3ccc(OCC(=O)O)cc3)NC(=O)[C@H](Cc3ccc(-c4ccccc4)cc3)NC(=O)[C@H](Cc3ccc(OCC(=O)O)cc3)NC2=O)c1 [Compound 1680] ({CH2CO}-TY(Carboxymethyl)D[Phe(3-Me)]Y(Carboxymethyl)[Bip]Y(Carboxymethyl)[NMeA][dL]N[Cha]V[Orn]C-NH2; thioether N-14) | 0.17 |
| Cc1cccc(C[C@@H]2NC(=O)[C@H](CC(=O)O)NC(=O)[C@H](Cc3ccc(C(=O)O)cc3)NC(=O)[C@H](Cc3ccc(OCC(=O)O)cc3)NC(=O)CSC[C@@H](C(N)=O)NC(=O)[C@H](CO)NC(=O)[C@H](C(C)C)NC(=O)[C@H](CC3CCCCC3)NC(=O)[C@H](CC(N)=O)NC(=O)[C@@H](CC(C)C)NC(=O)[C@H](C)N(C)C(=O)[C@H](C(C)C)NC(=O)[C@H](Cc3ccc(-c4ccccc4)cc3)NC(=O)[C@H](CC(C)C)NC2=O)c1 [Compound 1681] ({CH2CO}-Y(Carboxymethyl)[Phe(4-COOH)]D[Phe(3-Me)]L[Bip]V[NMeA][dL]N[Cha]VSC-NH2; thioether N-14) | 0.03 |
| Cc1cccc(C[C@@H]2NC(=O)[C@H](CC(=O)O)NC(=O)[C@H](Cc3ccc(C(=O)O)cc3)NC(=O)[C@H](Cc3ccc(OCC(=O)O)cc3)NC(=O)CSC[C@@H](C(N)=O)NC(=O)[C@H]([C@@H](C)O)NC(=O)[C@H](C(C)C)NC(=O)[C@H](CC(C)C)NC(=O)[C@H](CC(N)=O)NC(=O)[C@@H](CC(C)C)NC(=O)[C@H](C)N(C)C(=O)[C@H](C(C)C)NC(=O)[C@H](Cc3ccc(-c4ccccc4)cc3)NC(=O)[C@H](CC(C)C)NC2=O)c1 [Compound 1682] ({CH2CO}-Y(Carboxymethyl)[Phe(4-COOH)]D[Phe(3-Me)]L[Bip]V[NMeA][dL]NLVTC-NH2; thioether N-14) | 0.09 |
| Cc1cccc(C[C@@H]2NC(=O)[C@H](CC(=O)O)NC(=O)[C@H](Cc3ccc(C(=O)O)cc3)NC(=O)[C@H](Cc3ccc(OCC(=O)O)cc3)NC(=O)CSC[C@@H](C(N)=O)NC(=O)[C@H]([C@@H](C)O)NC(=O)[C@H](C(C)C)NC(=O)[C@H](CC3CCCCC3)NC(=O)[C@H](CC(N)=O)NC(=O)[C@@H](CC(C)C)NC(=O)[C@H](C)N(C)C(=O)[C@H](C(C)C)NC(=O)[C@H](Cc3ccc(-c4ccccc4)cc3)NC(=O)[C@H](CC(C)C)NC2=O)c1 [Compound 1683] ({CH2CO}-Y(Carboxymethyl)[Phe(4-COOH)]D[Phe(3-Me)]L[Bip]V[NMeA][dL]N[Cha]VTC-NH2; thioether N-14) | 0.03 |
| CC[C@H](C)[C@@H]1NC(=O)[C@H](Cc2ccc(-c3ccccc3)cc2)NC(=O)[C@H](C(C)C)NC(=O)[C@H](Cc2cccc(C)c2)NC(=O)[C@H](CC(=O)O)NC(=O)[C@H](Cc2ccc(O)cc2)NC(=O)[C@H](CC(N)=O)NC(=O)CSC[C@@H](C(=O)N[C@@H](CCN)C(N)=O)NC(=O)[C@H]([C@@H](C)O)NC(=O)[C@H](C(C)(C)O)NC(=O)[C@H](CC(C)C)NC(=O)[C@H](CCN)NC(=O)[C@@H](CC(C)C)NC(=O)[C@H](C)N(C)C1=O [Compound 1684] ({CH2CO}-NYD[Phe(3-Me)]V[Bip]I[NMeA][dL][Dab]L[Val(3-OH)]TC[Dab]-NH2; thioether N-14) | 0.01 |

Next, values leading:

| IC50 [µM] | SMILES |
| --- | --- |
| 0.1 | CC[C@H](C)[C@@H]1NC(=O)[C@H](Cc2ccc(-c3ccccc3)cc2)NC(=O)[C@H](C(C)C)NC(=O)[C@H](Cc2cccc(C)c2)NC(=O)[C@H](CC(=O)O)NC(=O)[C@H](Cc2ccc(O)cc2)NC(=O)[C@H](CC(N)=O)NC(=O)CSC[C@@H](C(=O)N[C@H](C)C(N)=O)NC(=O)[C@H]([C@@H](C)O)NC(=O)[C@H](C(C)(C)O)NC(=O)[C@H](CC(C)C)NC(=O)[C@H](CCN)NC(=O)[C@@H](CC(C)C)NC(=O)[C@H](C)N(C)C1=O [Compound 1685] ({CH2CO}-NYD[Phe(3-Me)]V[Bip]I[NMeA][dL][Dab]L[Val(3-OH)]TC[dA]-NH2; thioether N-14) |
| 0.16 | CC[C@H](C)[C@@H]1NC(=O)[C@H](Cc2ccc(-c3ccccc3)cc2)NC(=O)[C@H](C(C)(C)O)NC(=O)[C@H](Cc2cccc(C)c2)NC(=O)[C@H](CC(=O)O)NC(=O)[C@H](Cc2ccc(O)cc2)NC(=O)[C@H](CC(N)=O)NC(=O)CSC[C@@H](C(=O)N[C@@H](CCN)C(N)=O)NC(=O)[C@H]([C@@H](C)O)NC(=O)[C@H](C(C)C)NC(=O)[C@H](CC(C)C)NC(=O)[C@H](CCN)NC(=O)[C@@H](CC(C)C)NC(=O)[C@H](C)N(C)C1=O [Compound 1686] ({CH2CO}-NYD[Phe(3-Me)][Val(3-OH)][Bip]I[NMeA][dL][Dab]LVTC[Dab]-NH2; thioether N-14) |
| 0.11 | CC[C@H](C)[C@@H]1NC(=O)[C@H](Cc2ccc(-c3ccccc3)cc2)NC(=O)[C@H](C(C)(C)O)NC(=O)[C@H](Cc2cccc(C)c2)NC(=O)[C@H](CC(=O)O)NC(=O)[C@H](Cc2ccc(O)cc2)NC(=O)[C@H](CC(N)=O)NC(=O)CSC[C@@H](C(=O)N[C@@H](CCN)C(N)=O)NC(=O)[C@H]([C@@H](C)O)NC(=O)[C@H](C(C)(C)O)NC(=O)[C@H](CC(C)C)NC(=O)[C@H](CCN)NC(=O)[C@@H](CC(C)C)NC(=O)[C@H](C)N(C)C1=O [Compound 1687] ({CH2CO}-NYD[Phe(3-Me)][Val(3-OH)][Bip]I[NMeA][dL][Dab]L[Val(3-OH)]TC[Dab]-NH2; thioether N-14) |
| 0.02 | CC[C@H](C)[C@@H]1NC(=O)[C@H](Cc2ccc(-c3ccccc3)cc2)NC(=O)[C@H](C(C)C)NC(=O)[C@H](Cc2cccc(C)c2)NC(=O)[C@H](CC(=O)O)NC(=O)[C@H](Cc2ccc(O)cc2)NC(=O)[C@H](CC(N)=O)NC(=O)CSC[C@@H](C(=O)N[C@@H](CCN)C(N)=O)NC(=O)[C@H]([C@@H](C)O)NC(=O)[C@H](C(C)(C)O)NC(=O)[C@H](CC2CCCCC2)NC(=O)[C@H](CCN)NC(=O)[C@@H](CC(C)C)NC(=O)[C@H](C)N(C)C1=O [Compound 1689] ({CH2CO}-NYD[Phe(3-Me)]V[Bip]I[NMeA][dL][Dab][Cha][Val(3-OH)]TC[Dab]-NH2; thioether N-14) |
| 0.01 | CC[C@H](C)[C@@H]1NC(=O)[C@H](Cc2ccc(-c3ccccc3)cc2)NC(=O)[C@H](C(C)C)NC(=O)[C@H](Cc2cccc(C)c2)NC(=O)[C@H](CC(=O)O)NC(=O)[C@H](Cc2ccc(O)cc2)NC(=O)[C@H](CC(N)=O)NC(=O)CSC[C@@H](C(=O)N[C@H](C)C(N)=O)NC(=O)[C@H]([C@@H](C)O)NC(=O)[C@H](C(C)(C)O)NC(=O)[C@H](CC2CCCCC2)NC(=O)[C@H](CCN)NC(=O)[C@@H](CC(C)C)NC(=O)[C@H](C)N(C)C1=O [Compound 1690] ({CH2CO}-NYD[Phe(3-Me)]V[Bip]I[NMeA][dL][Dab][Cha][Val(3-OH)]TC[dA]-NH2; thioether N-14) |
| 0.02 | CC[C@H](C)[C@@H]1NC(=O)[C@H](Cc2ccc(-c3ccccc3)cc2)NC(=O)[C@H](C(C)(C)O)NC(=O)[C@H](Cc2cccc(C)c2)NC(=O)[C@H](CC(=O)O)NC(=O)[C@H](Cc2ccc(O)cc2)NC(=O)[C@H](CC(N)=O)NC(=O)CSC[C@@H](C(=O)N[C@@H](CCN)C(N)=O)NC(=O)[C@H]([C@@H](C)O)NC(=O)[C@H](C(C)C)NC(=O)[C@H](CC2CCCCC2)NC(=O)[C@H](CCN)NC(=O)[C@@H](CC(C)C)NC(=O)[C@H](C)N(C)C1=O [Compound 1691] ({CH2CO}-NYD[Phe(3-Me)][Val(3-OH)][Bip]I[NMeA][dL][Dab][Cha]VTC[Dab]-NH2; thioether N-14) |
| 0.08 | CC[C@H](C)[C@@H]1NC(=O)[C@H](Cc2ccc(-c3ccccc3)cc2)NC(=O)[C@H](C(C)(C)O)NC(=O)[C@H](Cc2cccc(C)c2)NC(=O)[C@H](CC(=O)O)NC(=O)[C@H](Cc2ccc(O)cc2)NC(=O)[C@H](CC(N)=O)NC(=O)CSC[C@@H](C(=O)N[C@H](C)C(N)=O)NC(=O)[C@H]([C@@H](C)O)NC(=O)[C@H](C(C)C)NC(=O)[C@H](CC2CCCCC2)NC(=O)[C@H](CCN)NC(=O)[C@@H](CC(C)C)NC(=O)[C@H](C)N(C)C1=O [Compound 1692] ({CH2CO}-NYD[Phe(3-Me)][Val(3-OH)][Bip]I[NMeA][dL][Dab][Cha]VTC[dA]-NH2; thioether N-14) |
